Where a name gives a salt, the structure may show the parent alone.
Test: Solubility of marketed Drug Products: cyclodextrin to drug ratio
Details: CD = hydroxypropyl-β-cyclodextrin

Row | Compound | CD/D (mol/mol)
1 | CN1C(=O)CN=C(c2ccccc2)c2cc(Cl)ccc21 [Diazepam] | 18.4
2 | CCC(C)n1ncn(-c2ccc(N3CCN(c4ccc(OCC5COC(Cn6cncn6)(c6ccc(Cl)cc6Cl)O5)cc4)CC3)cc2)c1=O (stereo not drawn) [Itraconazole] | 20.2
3 | CC(C)NCC(O)COc1cccc2ccccc12 (stereo not drawn) [Propranolol] | 10.4
4 | CNC(=C[N+](=O)[O-])NCCSCc1ccc(CN(C)C)o1 [Ranitidine HCl] | 14.5
5 | CCCCCCCCCCNCCN[C@@]1(C)C[C@H](O[C@H]2[C@H](Oc3c4cc5cc3Oc3ccc(cc3Cl)[C@@H](O)[C@@H](NC(=O)[C@@H](CC(C)C)NC)C(=O)N[C@@H](CC(N)=O)C(=O)N[C@H]5C(=O)N[C@H]3C(=O)N[C@H](C(=O)N[C@H](C(=O)O)c5cc(O)c(CNCP(=O)(O)O)c(O)c5-c5cc3ccc5O)[C@H](O)c3ccc(c(Cl)c3)O4)O[C@H](CO)[C@@H](O)[C@@H]2O)O[C@@H](C)[C@H]1O [Telavancin HCl] | 12.6
6 | O=C(CCCN1CCC(O)(c2ccc(Cl)cc2)CC1)c1ccc(F)cc1 [Haloperidol] | 302.9
7 | CN(Cc1cnc2nc(N)nc(N)c2n1)c1ccc(C(=O)N[C@@H](CCC(=O)O)C(=O)O)cc1 [Methotrexate] | 18.3

Same assay, conditions: CD = sulfobutyl ether β-cyclodextrin

Row | Compound | CD/D (mol/mol)
8 | C[C@@H](c1ncncc1F)[C@](O)(Cn1cncn1)c1ccc(F)cc1F [Voriconazole] | 2.5
9 | CC[C@@H]([C@H](C)O)n1ncn(-c2ccc(N3CCN(c4ccc(OC[C@@H]5CO[C@@](Cn6cncn6)(c6ccc(F)cc6F)C5)cc4)CC3)cc2)c1=O [Posaconazole] | 6.9

Test: not given
Format: physicochemical
Details: not given
Protocol: 1% (w/v) of propofol was prepared in a saline based solution with different PEG-carbohydrate conjugates. Table 6 listed the minimum concentration of the conjugates required to solublize propofol as a solubility test reference.

Row | Compound | Concentration (% w/v)
10 | cholesterypropanediaminelactobionate-mPEG12 | 3.5
11 | oleoylpropanediaminelactobionate-mPEG12 | 3.0
12 | 2-hydroxypropyl-β-cyclodextrin | 30

From patent publication US10064954B2, “Polymer-cyclodextrin-lipid conjugates” (priority 2015, dated 2018)
